Results taken from patent publication US10251395B2, “Substituted furano-/thienocycloalkylamino-2-pyrimidine derivatives and use thereof for controlling undesired plant growth” (Bayer CropScience Aktiengesellschaft, priority 2015, dated 2019).

Key:
Type in all cases: in vivo
Amaranthus retroflexus [1] = experiment: Post-emergence herbicidal effect; details: assessed visually after about 3 weeks vs untreated controls
Summary of the method: (§1)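 Ratings are visual percentages taken around 3 weeks after treatment, compared with untreated plants. Treatment consisted of an aqueous spray of WP or EC formulations, with 0.2% wetting agent, onto one-leaf-stage weeds raised from seed in sandy loam.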

Viola tricolor [2] = experiment: Post-emergence herbicidal effect; details: assessed visually after about 3 weeks vs untreated controls
Summary of the method: as §1

Ipomoea purpurea = experiment: Post-emergence herbicidal effect; details: assessed visually after about 3 weeks vs untreated controls
Summary of the method: as §1

Abutilon theophrasti [3] = experiment: Post-emergence herbicidal effect; details: assessed visually after about 3 weeks vs untreated controls
Summary of the method: as §1

Setaria viridis [4] = experiment: Post-emergence herbicidal effect; details: assessed visually after about 3 weeks vs untreated controls
Summary of the method: as §1

Veronica persica [5] = experiment: Post-emergence herbicidal effect; details: assessed visually after about 3 weeks vs untreated controls
Summary of the method: as §1

Echinochloa crus-galli [6] = experiment: Post-emergence herbicidal effect; details: assessed visually after about 3 weeks vs untreated controls
Summary of the method: as §1

Cyperus esculentus = experiment: Pre-emergence herbicidal effect; details: Dosage 320 g/ha, scored visually after 3 weeks
Summary of the method: (§2)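 Seeds sown in sandy loam in wood-fiber pots and covered with soil; WP or EC formulations applied to the soil surface as aqueous suspension or emulsion at 600 to 800 L/ha water with 0.2% wetting agent. Greenhouse, 3 weeks; damage scored visually versus untreated controls (100% = plants died, 0% = like control).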

Stellaria media [7] = experiment: Pre-emergence herbicidal effect; details: scored visually after 3 weeks
Summary of the method: as §2

Polygonum convolvulus [8] = experiment: Pre-emergence herbicidal effect; details: scored visually after 3 weeks
Summary of the method: as §2

Amaranthus retroflexus [9] = experiment: Pre-emergence herbicidal effect; details: scored visually after 3 weeks
Summary of the method: as §2

Lolium multiflorum = experiment: Pre-emergence herbicidal effect; details: Dosage 320 g/ha, scored visually after 3 weeks
Summary of the method: as §2

Matricaria inodora [10] = experiment: Pre-emergence herbicidal effect; details: scored visually after 3 weeks
Summary of the method: as §2

Viola tricolor [11] = experiment: Pre-emergence herbicidal effect; details: scored visually after 3 weeks
Summary of the method: as §2

Abutilon theophrasti [12] = experiment: Pre-emergence herbicidal effect; details: scored visually after 3 weeks
Summary of the method: as §2

Alopecurus myosuroides = experiment: Pre-emergence herbicidal effect; details: scored visually after 3 weeks
Summary of the method: as §2

Setaria viridis [13] = experiment: Pre-emergence herbicidal effect; details: scored visually after 3 weeks
Summary of the method: as §2

Veronica persica [14] = experiment: Pre-emergence herbicidal effect; details: scored visually after 3 weeks
Summary of the method: as §2

Echinochloa crus-galli [15] = experiment: Pre-emergence herbicidal effect; details: scored visually after 3 weeks
Summary of the method: as §2

Stellaria media [16] = experiment: Post-emergence herbicidal effect; details: assessed visually after about 3 weeks vs untreated controls
Summary of the method: as §1

Polygonum convolvulus [17] = experiment: Post-emergence herbicidal effect; details: 320 g/ha, assessed visually after about 3 weeks vs untreated controls
Summary of the method: as §1

Matricaria inodora [18] = experiment: Post-emergence herbicidal effect; details: assessed visually after about 3 weeks vs untreated controls
Summary of the method: as §1

Row | SMILES | post-emergence efficacy AMARE (Amaranthus retroflexus [1]; 80 g/ha) | post-emergence efficacy AMARE (Amaranthus retroflexus [1]; 320 g/ha) | post-emergence efficacy VIOTR (Viola tricolor [2]; 80 g/ha) | post-emergence efficacy VIOTR (Viola tricolor [2]; 320 g/ha) | post-emergence efficacy ABUTH (Abutilon theophrasti [3]; 320 g/ha) | post-emergence efficacy SETVI (Setaria viridis [4]; 320 g/ha) | post-emergence efficacy VERPE (Veronica persica [5]; 80 g/ha) | post-emergence efficacy VERPE (Veronica persica [5]; 320 g/ha) | post-emergence efficacy ECHCG (Echinochloa crus-galli [6]; 320 g/ha) | CYPES pre-emergence efficacy (herbicidal activity) (Cyperus esculentus) | STEME pre-emergence efficacy (herbicidal activity) (Stellaria media [7]; Dosage 80 g/ha) | STEME pre-emergence efficacy (herbicidal activity) (Stellaria media [7]; Dosage 320 g/ha) | POLCO pre-emergence efficacy (herbicidal activity) (Polygonum convolvulus [8]; Dosage 320 g/ha) | AMARE pre-emergence efficacy (herbicidal activity) (Amaranthus retroflexus [9]; Dosage 80 g/ha) | AMARE pre-emergence efficacy (herbicidal activity) (Amaranthus retroflexus [9]; Dosage 320 g/ha) | LOLMU pre-emergence efficacy (herbicidal activity) (Lolium multiflorum) | MATIN pre-emergence efficacy (herbicidal activity) (Matricaria inodora [10]; Dosage 80 g/ha) | MATIN pre-emergence efficacy (herbicidal activity) (Matricaria inodora [10]; Dosage 320 g/ha) | VIOTR pre-emergence efficacy (herbicidal activity) (Viola tricolor [11]; Dosage 80 g/ha) | VIOTR pre-emergence efficacy (herbicidal activity) (Viola tricolor [11]; Dosage 320 g/ha) | other results
1 | Cc1cc2c(s1)CCCC2Nc1ncc(S(C)(=O)=O)c(N)n1 (racemic) [compound 59] | 60% | 90% | 80% | 80% | 20% | 90% | 90% | 100% | 100% | 80% | 100% | 100% | 100% | 100% | 100% | 90% | 100% | 100% | 100% | 100% | post-emergence efficacy PHBPU (Ipomoea purpurea; 80 g/ha): 80%; post-emergence efficacy PHBPU (Ipomoea purpurea; 320 g/ha): 80%; post-emergence efficacy ABUTH (Abutilon theophrasti [3]; 80 g/ha): 20%; post-emergence efficacy SETVI (Setaria viridis [4]; 80 g/ha): 90%; post-emergence efficacy ECHCG (Echinochloa crus-galli [6]; 80 g/ha): 20%; POLCO pre-emergence efficacy (herbicidal activity) (Polygonum convolvulus [8]; Dosage 80 g/ha): 80%; ABUTH pre-emergence efficacy (herbicidal activity) (Abutilon theophrasti [12]; Dosage 80 g/ha): 80%; ABUTH pre-emergence efficacy (herbicidal activity) (Abutilon theophrasti [12]; Dosage 320 g/ha): 100%; ALOMY pre-emergence efficacy (herbicidal activity) (Alopecurus myosuroides; Dosage 320 g/ha): 80%; SETVI pre-emergence efficacy (herbicidal activity) (Setaria viridis [13]; Dosage 80 g/ha): 80%; SETVI pre-emergence efficacy (herbicidal activity) (Setaria viridis [13]; Dosage 320 g/ha): 100%; VERPE pre-emergence efficacy (herbicidal activity) (Veronica persica [14]; Dosage 80 g/ha): 100%; VERPE pre-emergence efficacy (herbicidal activity) (Veronica persica [14]; Dosage 320 g/ha): 100%; ECHCG pre-emergence efficacy (herbicidal activity) (Echinochloa crus-galli [15]; Dosage 80 g/ha): 100%; ECHCG pre-emergence efficacy (herbicidal activity) (Echinochloa crus-galli [15]; Dosage 320 g/ha): 100%
2 | Cc1cc2c(s1)CCCC2Nc1nc(N)c([S+](C)[O-])c(C(F)F)n1 (racemic) [compound 264] | 90% | 90% | 90% | 90% | 90% | 80% | 90% | 90% | 90% | 100% | 100% | 100% | 100% | 100% | 100% | 60% | 90% | 100% | 100% | 100% | post-emergence efficacy STEME (Stellaria media [16]; 80 g/ha): 100%; post-emergence efficacy STEME (Stellaria media [16]; 320 g/ha): 100%; post-emergence efficacy POLCO (Polygonum convolvulus [17]): 80%; post-emergence efficacy MATIN (Matricaria inodora [18]; 80 g/ha): 80%; post-emergence efficacy MATIN (Matricaria inodora [18]; 320 g/ha): 90%; ALOMY pre-emergence efficacy (herbicidal activity) (Alopecurus myosuroides; Dosage 80 g/ha): 60%; ALOMY pre-emergence efficacy (herbicidal activity) (Alopecurus myosuroides; Dosage 320 g/ha): 60%; SETVI pre-emergence efficacy (herbicidal activity) (Setaria viridis [13]; Dosage 80 g/ha): 80%; SETVI pre-emergence efficacy (herbicidal activity) (Setaria viridis [13]; Dosage 320 g/ha): 90%; VERPE pre-emergence efficacy (herbicidal activity) (Veronica persica [14]; Dosage 80 g/ha): 100%; VERPE pre-emergence efficacy (herbicidal activity) (Veronica persica [14]; Dosage 320 g/ha): 100%; ECHCG pre-emergence efficacy (herbicidal activity) (Echinochloa crus-galli [15]; Dosage 320 g/ha): 100%
